According to US7544483B2, “Method for the production of protamine” (priority 2002, dated 2009):
Structures can show the parent of a compound that is named as a salt.

How the values were obtained:
Format in all cases: cell-based
[1] = tested on: Micrococcus luteus DSM 348; assay: Effect of biological buffers with or without protamine on the growth of Micrococcus luteus DSM 348; settings: for μ (growth rate): buffer without protamine, pH of 8.0 (FIG. 4), starting inoculum 10^7 cells, mean of three replicates
Protocol: (§1) All bacterial strains are maintained as frozen stocks at −80° C. in TSB, Luria-Bertani broth.
(§2) Throughout the experiments strains are subcultured every 2 weeks on TSA (tryptic soy agar; 15 g l^−1 agar) or LBA (Luria-Bertani agar; 15 g l^−1 agar) depending upon the type of bacteria and experiment and kept at 4° C. The incubation temperature is 37° C. except for photo-heterotrophic bacteria (30° C.).
(§3) The growth curve is determined by measuring the optical density (OD), growth rate and doubling time. Additionally, the number of colony forming units is determined by counting bacterial spots.
(§4) Bacterial growth is monitored by recording the increase in optical density (OD) at 560 nm in a spectrophotometer (Ultrospec 1000, Pharmacia Biotech, England). Sterile medium is used as reference. […] At given times, 100 μl aliquots of the samples are removed and spread on corresponding agar plates. If necessary, the samples are diluted by factors between 10^2−10^8 to ensure good count ability. Colony forming unit determination (CFU/ml) is carried out in duplicate using a CCD camera module (Sony Corp., Japan) applying the BioProfil Software V 2000.01 (Vilber Lourmat, France).
(§5) A commercially available protamine from Salmon is obtained from Sigma Aldrich (Taufkirchen, Germany). A stock solution is prepared by dissolving protamine in distilled water. The solution is then sterilized with Rotabilo© filter units (0.22 μm; Carl Roth, Karlsruhe, Germany) and stored at −20° C. until use.
Determination of Bactericidal Effect of Biological Buffers With or Without Protamine on Gram-positive Bacteria
(§6) In all experiments the starting inoculum is 10^7 cells. The data shown are average means of three replicates.

Pseudomonas fluorescens = assay: Protamine tolerance of Pseudomonas fluorescens with a special phenotype
Escherichia coli = assay: Growth of Escherichia coli in the presence of protamine
Escherichia coli DH5α = assay: Effect of biological buffers with or without protamine on the growth of Escherichia coli DH5α; settings: buffer without protamine; starting inoculum 10^7 cells; mean of three replicates
Protocol: as §1, §2, §3, §4, §5
Determination of Bactericidal Effect of Biological Buffers With or Without Protamine on Gram-negative Bacteria
as §6

Row | Compound | effect of the composition additionally comprising protamine ([1]; pH of 8.0, citrate + bicarbonate composition) | protamine concentrations tolerated (Pseudomonas fluorescens) | protamine concentration at which the organism does not grow (Escherichia coli) | concentration of protamine needed for bacterial death on further addition of lysozyme ([1]; pH of 8.0, citrate + bicarbonate composition with protamine, relative to the amount needed without lysozyme) [%] | td (doubling time) (Escherichia coli DH5α) [h] | μ (growth rate) (Escherichia coli DH5α) [h⁻¹] | μ (growth rate) [1] [h⁻¹]
1 | protamine | bacterial death | more than 40 mg/ml | 1,5 mg/ml | – | – | – | –
2 | lysozyme | – | – | – | 30 | – | – | –
3 | O=C(O)CC(O)(CC(=O)O)C(=O)O [0.4M citrate] | – | – | – | – | 3.75 | 0.185 | 0
4 | O=C([O-])O.[Na+] [0.1M NaHCO3, NaHCO3] | – | – | – | – | 3.01 | 0.230 | 0
